This assay has as its system HuH-7 replicon cells 5–15 and 9–13 (HCV replication). As to the kind of experiment: Inhibition of viral replication in HuH-7 replicon cells (HCV RNA / GAPDH RNA by multiplex RT-PCR). Conditions: Hepatitis C virus, 72 h; inhibiting 50% of replication; HuH-7 replicon cells, 3 days; read-out: IC50. The assay is classed as cell-based. The procedure, abridged:
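Replicon cells seeded at 7×10^3 cells/well, grown 24 h, then exposed 3 days at 37 °C to compound at final 100 μM–1 μM (1% DMSO). Multiplex TaqMan RT-PCR on total RNA quantified HCV 5′-UTR and GAPDH RNA against a standard curve; HCV/GAPDH ratio reported as percent of untreated control.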
In general terms: In antiviral work, replicon cells carry a viral genome segment that copies itself.

SMILES strings stand for the structures. A value given as a limit tells only on which side of the number the result lay.

By IC50 is commonly meant the concentration that gives 50% inhibition.

Regarding `COc1cccc(CC(=O)N/N=C/c2ccccc2OS(=O)(=O)c2ccc(N3CCOCC3)nc2)c1` [Compound 216, 2-((E)-{2-[2-(3-methoxyphenyl)acetyl]hydrazono}methyl)-phenyl 6-morpholin-4-ylpyridine-3-sulfonate], the IC50 was 5 to 50 µM.
Then `COc1cccc(CC(=O)N/N=C/c2ccccc2OS(=O)(=O)c2ccc(Oc3cccnc3)cc2)c1` [Compound 217, 2-((E)-{2-[2-(3-methoxyphenyl)acetyl]hydrazono}methyl)-phenyl 4-(pyridin-3-yloxy)benzenesulfonate], with 5 to 50 µM; and `COc1cccc(CC(=O)N/N=C/c2ccccc2OS(=O)(=O)c2ccc(Oc3ncc(C(F)(F)F)cc3Cl)cc2)c1` [Compound 218, 2-((E)-{2-[2-(3-methoxyphenyl)acetyl]hydrazono}methyl)-phenyl 4-{[3-chloro-5-(trifluoromethyl)pyridin-2-yl]oxy}benzenesulfonate], with above 50 µM.
The same measure for `C/C(=N\NC(=O)Cc1ccccc1)c1ccccc1OS(=O)(=O)c1ccc(C(F)(F)F)cc1` [Compound 219, 2-[(1E)-N-(phenylacetyl)ethanehydrazonoyl]phenyl4-(trifluoromethyl)benzenesulfonate]: above 50 µM; for `COc1cccc(CC(=O)N/N=C(\C)c2cc(F)ccc2OS(=O)(=O)c2ccc(C(F)(F)F)cc2)c1` [Compound 220, 4-fluoro-2-{(1E)-N-[(3-methoxyphenyl)acetyl]ethanehydrazonoyl}-phenyl 4-(trifluoromethyl)-benzenesulfonate]: above 50 µM; for `COc1cccc(CC(=O)N/N=C(\C)c2ccccc2OS(=O)(=O)c2ccc(C(F)(F)F)cc2)c1` [Compound 221, 2-{(1E)-N-[(3-methoxyphenyl)acetyl]ethanehydrazonoyl}-phenyl 4-(trifluoromethyl)benzenesulfonate]: above 50 µM.
Regarding `COc1cccc(CC(=O)N/N=C(\C)c2ccc(F)cc2OS(=O)(=O)c2ccc(C(F)(F)F)cc2)c1` [Compound 222, 5-fluoro-2-{(1E)-N-[(3-methoxyphenyl)acetyl]ethanehydrazonoyl}-phenyl 4-(trifluoromethyl)benzenesulfonate], the 50% inhibitory concentration (IC50) is above 50 µM.
For `C/C(=N\NC(=O)Cc1ccc(Cl)c(Cl)c1)c1ccccc1OS(=O)(=O)c1ccc(C(F)(F)F)cc1` [Compound 223, 2-{(1E)-N-[(3,4-dichlorophenyl)acetyl]ethanehydrazonoyl}-phenyl 4-(trifluoromethyl)benzenesulfonate], the IC50 is above 50 µM.
The same measure for `COC(=O)CCc1ccc(S(=O)(=O)Oc2ccccc2/C=N/NC(=O)Cc2cccc(OC)c2)cc1` [Compound 224, methyl 3-(4-{[2-((E)-{[(3-methoxyphenyl)acetyl]hydrazono}methyl)-phenoxy]sulfonyl}phenyl)propanoate]: above 50 µM; for `COc1cccc(CC(=O)N/N=C/c2ccccc2OS(=O)(=O)c2ccc(OCc3cnc(Cl)s3)cc2)c1` [Compound 225, 2-((E)-{2-[2-(3-methoxyphenyl)acetyl]hydrazono}methyl)-phenyl 4-[(2-chloro-1,3-thiazol-5-yl)methoxy]benzenesulfonate]: above 50 µM; for `COc1cccc(CC(=O)N/N=C/c2ccccc2OS(=O)(=O)c2ccc(-c3cc(C(F)(F)F)n(C)n3)s2)c1` [Compound 226, 2-((E)-{2-[2-(3-methoxyphenyl)acetyl]hydrazono}methyl)-phenyl 5-[1-methyl-5-(trifluoromethyl)-1H-pyrazol-3-yl]thiophene-2-sulfonate]: below 5 µM.
The same measure for `O=C(Cc1cccc(Cl)c1)N/N=C/c1ccncc1OS(=O)(=O)c1ccc(C(F)(F)F)cc1` [Compound 227, 4-((E)-{2-[2-(3-chlorophenyl)acetyl]hydrazono}methyl)-pyridin-3-yl 4-(trifluoromethyl)benzenesulfonate]: below 5 µM.
On to `Cc1ccc(S(=O)(=O)Oc2cnccc2/C=N/NC(=O)Cc2cccc(Cl)c2)cc1` [Compound 228, 4-((E)-{2-[2-(3-chlorophenyl)acetyl]hydrazono}methyl)-pyridin-3-yl 4-methylbenzenesulfonate], for which the IC50 was below 5 µM.
Then `COc1cccc(CC(=O)N/N=C/c2ccncc2OS(=O)(=O)c2ccc(C)cc2)c1` [Compound 229, 4-((E)-{2-[2-(3-methoxyphenyl)acetyl]hydrazono}methyl)-pyridin-3-yl 4-methylbenzenesulfonate], with below 5 µM.
For the compound `COc1cccc(CC(=O)N/N=C/c2ccncc2OS(=O)(=O)c2ccc(C(F)(F)F)cc2)c1` [Compound 230, 4-((E)-{2-[2-(3-methoxyphenyl)acetyl]hydrazono}methyl)-pyridin-3-yl 4-(trifluoromethyl)benzenesulfonate], the IC50 is below 5 µM.
The same measure for `Cc1ccc(S(=O)(=O)Cc2ccccc2/C=N/NC(=O)Cc2cccc(Cl)c2)cc1` [Compound 231, 2-(3-chlorophenyl)-N′-[(1E)-(2-{[(4-methylphenyl)sulfonyl]methyl}phenyl)-methylene]acetohydrazide]: below 5 µM.
Then `Cc1ccc(S(=O)(=O)Cc2ccccc2/C=N/NC(=O)Cc2ccccc2)cc1` [Compound 232, N′-[(1E)-(2-{[(4-methylphenyl)sulfonyl]methyl}phenyl)-methylene]-2-phenylacetohydrazide], with below 5 µM; and `COc1cccc(CC(=O)N/N=C/c2ccccc2CS(=O)(=O)c2ccc(C)cc2)c1` [Compound 233, 2-(3-methoxyphenyl)-N′-[(1 E)-(2-{[(4-methylphenyl)sulfonyl]methyl}phenyl)-methylene]acetohydrazide], with below 5 µM; and `Cc1ccc(Oc2ccccc2/C=N/NC(=O)Cc2ccccc2)cc1` [Compound 234, N′-{(1E)-[2-(4-methylphenoxy)phenyl]methylene}-2-phenylacetohydrazide], with above 50 µM.
The same measure for `Cc1ccc(COc2ccccc2/C=N/NC(=O)Cc2ccccc2)cc1` [Compound 235, N′-((1E)-{2-[(4-methylbenzyl)oxy]phenyl}methylene)-2-phenylacetohydrazide]: above 50 µM; for `COc1cccc(CC(=O)N/N=C/c2ccccc2OCc2ccc(C)cc2)c1` [Compound 236, 2-(3-methoxyphenyl)-N′-((1E)-{2-[(4-methylbenzyl)oxy]phenyl}methylene)-acetohydrazide]: above 50 µM.
With `CC(C)(C)c1ccc(COc2ccccc2/C=N/NC(=O)Cc2cccnc2)cc1` [Compound 237, N′-((1E)-{2-[(4-tert-butylbenzyl)oxy]phenyl}methylene)-2-pyridin-3-ylacetohydrazide], the concentration for half-maximal inhibition (IC50) was above 50 µM.
The same measure for `O=C(Cc1ccccc1)N/N=C/c1ccccc1OCc1cccc2ccccc12` [Compound 238, N′-{(1E)-[2-(1-naphthylmethoxy)phenyl]methylene}-2-phenylacetohydrazide]: 5 to 50 µM.
Then `COc1cccc(CC(=O)N/N=C/c2ccccc2S(=O)(=O)c2ccc(C)cc2)c1` [Compound 239, 2-(3-methoxyphenyl)-N′-((1E)-{2-[(4-methylphenyl)sulfonyl]phenyl}methylene)-acetohydrazide], with 5 to 50 µM; and `CN(c1ccccc1/C=N/NC(=O)c1cc(Cl)ccc1Cl)S(=O)(=O)c1ccc(C(F)(F)F)cc1` [Compound 240, N-(2-{(E)-[(2,5-dichlorobenzoyl)hydrazono]methyl}phenyl)-N-methyl-4-(trifluoromethyl)benzenesulfonamide], with 1 µM.
Regarding `O=C(Cc1cccc(Br)c1)N/N=C/c1ccccc1NS(=O)(=O)c1ccc(C(F)(F)F)cc1` [Compound 241, N-[2-((E)-{[(3-bromophenyl)acetyl]hydrazono}methyl)-phenyl]-4-(trifluoromethyl)benzenesulfonamide], the IC50 is above 50 µM.
Then `O=C(Cc1cccc(Cl)c1)N/N=C/c1ccccc1NS(=O)(=O)c1ccc(C(F)(F)F)cc1` [Compound 242, N-[2-((E)-{[(3-chlorophenyl)acetyl]hydrazono}methyl)-phenyl]-4-(trifluoromethyl)benzenesulfonamide], with above 50 µM; and `CN(c1ccccc1/C=N/NC(=O)Cc1ccccc1)S(=O)(=O)c1ccc(C(F)(F)F)cc1` [Compound 243, N-methyl-N-(2-{(E)-[(phenylacetyl)hydrazono]methyl}phenyl)-4-(trifluoromethyl)benzenesulfonamide], with below 5 µM.
The same measure for `CN(c1ccccc1/C=N/NC(=O)Cc1cccc(Cl)c1)S(=O)(=O)c1ccc(C(F)(F)F)cc1` [Compound 244, N-[2-((E)-{[(3-chlorophenyl)acetyl]hydrazono}methyl)-phenyl]-N-methyl-4-(trifluoromethyl)benzenesulfonamide]: below 5 µM.
With `CN(c1ccccc1/C=N/NC(=O)Cc1cccc(Br)c1)S(=O)(=O)c1ccc(C(F)(F)F)cc1` [Compound 245, N-[2-((E)-{[(3-bromophenyl)acetyl]hydrazono}methyl)-phenyl]-N-methyl-4-(trifluoromethyl)benzenesulfonamide], the IC50 is below 5 µM.
The same measure for `COc1ccc(CC(=O)N/N=C/c2ccccc2N(C)S(=O)(=O)c2ccc(C(F)(F)F)cc2)cc1OC` [Compound 246, N-[2-((E)-{[(3,4-dimethoxyphenyl)acetyl]hydrazono}methyl)-phenyl]-N-methyl-4-(trifluoromethyl)benzenesuIfonamide]: below 5 µM; for `CN(c1ccccc1/C=N/NC(=O)Cc1cccnc1)S(=O)(=O)c1ccc(C(F)(F)F)cc1` [Compound 247, N-methyl-N-(2-{(E)-[(pyridin-3-ylacetyl)hydrazono]methyl}phenyl)-4-(trifluoromethyl)benzenesulfonamide]: below 5 µM.
The same measure for `CN(c1ccccc1/C=N/NC(=O)Cc1ccc2c(c1)OCO2)S(=O)(=O)c1ccc(C(F)(F)F)cc1` [Compound 248, N-(2-{(E)-[(1,3-benzodioxol-5-ylacetyl)hydrazono]methyl}phenyl)-N-methyl-4-(trifluoromethyl)benzenesulfonamide]: below 5 µM.

The values are drawn from patent US7026339B2, “Inhibitors of HCV NS5B polymerase” (priority 2003, dated 2006).
